What all share (format): cell-based
One assay concerns the target T1, RAR alpha (Homo sapiens, UniProt P10276).
T1 sequence (P10276 183-417 limits assumed): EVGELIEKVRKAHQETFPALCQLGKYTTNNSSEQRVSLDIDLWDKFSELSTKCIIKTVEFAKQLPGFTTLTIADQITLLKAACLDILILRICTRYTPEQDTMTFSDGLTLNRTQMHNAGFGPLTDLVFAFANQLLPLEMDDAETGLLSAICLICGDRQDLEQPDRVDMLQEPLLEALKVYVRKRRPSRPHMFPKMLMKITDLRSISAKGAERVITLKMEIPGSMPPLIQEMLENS
The assay can be described thus: Transactivation test (luciferase reporter, HeLa stable transfectants), RAR alpha. To be noted: apparent Kd from Schild regression, cross curves against reference antagonist, HeLa cells; read-out: RAR alpha Kdapp. As for the experimental part:
(§1) The activation of the receptors by an agonist (activator) in HeLa cells results in the expression of a reporter gene, luciferase, which, in the presence of a substrate, generates light. It is thus possible to measure the activation of the receptors by quantifying the luminescence produced after incubation of the cells in the presence of a reference antagonist. The activating products displace the antagonist from its site, thus allowing activation of the receptor. The activity is measured by quantifying the increase in the light produced. This measurement makes it possible to determine the activator activity of the compound that can be used in the invention.
(§2) In this study, a constant which represents the affinity of the molecule for the receptor is determined. Since this value can fluctuate according to the basal activity and the expression of the receptor, it is designated apparent Kd (KdApp).
(§3) The test product is used at 10 concentrations and the reference antagonist at 7 concentrations. In each well (of a 96-well plate), the cells are in contact with one concentration of the test product and one concentration of the reference antagonist.
(§4) Measurements are also carried out for the total agonist control, otherwise known as 100% control (4-[2-(5,5,8,8-tetramethyl-5,6,7,8-tetrahydronaphthalen-2-yl)propenyl]benzoic acid), and the inverse agonist control, otherwise known as 0% control (4-{(E)-3-[4-(4-tert-butylphenyl)-5,5,8,8-tetramethyl-5,6,7,8-tetrahydronaphthalen-2-yl)]-3-oxopropenyl}benzoic acid).
(§5) In the case of an agonist, the AC50 is calculated by plotting the curve of the product at the concentration of the reference ligand giving 80% activation. The percentage activation which corresponds to the maximum level of activity obtained is also measured.
(§6) The HeLa cell lines used are stable transfectants containing the plasmids ERE-βGlob-Luc-SV-Neo (reporter gene) and RAR (α, β, γ) ER-DBO-puro. These cells are seeded into 96-well plates at a rate of 10 000 cells per well in 100 μl of DMEM medium without phenol red and supplemented with 10% defatted calf serum. The plates are then incubated at 37° C., 7% CO2 for 4 hours.
(§7) The various dilutions of the test product, of the reference ligand
(§8) (4-(5,5-dimethyl-8-p-tolyl-5,6-dihydronaphthalen-2-ylethynyl)benzoic acid), of the 100% control (100 nM 4-[2-(5,5,8,8-tetramethyl-5,6,7,8-tetrahydronaphthalen-2-yl)propenyl]benzoic acid) and of the 0% control (500 nM 4-{(E)-3-[4-(4-tert-butylphenyl)-5,5,8,8-tetramethyl-5,6,7,8-tetrahydronaphthalen-2-yl)]-3-oxopropenyl}benzoic acid) are added at a rate of 5 μl per well. The plates are then incubated for 18 hours at 37° C., 7% CO2.
(§9) The culture medium is removed by turning the plates over, and 100 μl of a 1:1 PBS (phosphate buffered solution)/luciferin mixture are added to each well. After 5 minutes, the plates are read using the luminescence reader.
Background: Reporter assays use an easily measured gene product as a stand-in for the process of interest.

Another assay addresses T2, RAR beta (Homo sapiens, UniProt P10826).
T2 sequence (P10826 183-417 limits assumed): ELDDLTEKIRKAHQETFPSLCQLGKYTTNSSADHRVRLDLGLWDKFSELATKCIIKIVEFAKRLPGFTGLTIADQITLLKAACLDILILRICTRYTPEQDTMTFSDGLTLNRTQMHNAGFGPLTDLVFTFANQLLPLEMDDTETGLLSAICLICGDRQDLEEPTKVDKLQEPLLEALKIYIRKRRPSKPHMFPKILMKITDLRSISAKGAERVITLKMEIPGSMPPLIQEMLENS
The assay is described as follows: Transactivation test (luciferase reporter, HeLa stable transfectants), RAR beta. To be noted: apparent Kd from Schild regression, cross curves against reference antagonist, HeLa cells; read-out: RAR beta Kdapp. How it is done:
as §1, §2, §3, §4, §5, §6, §7, §8, §9

A further assay deals with T3, RAR gamma (Homo sapiens, UniProt P13631).
T3 construct: RAR gamma Kdapp
T3 sequence (P13631 185-419 limits assumed): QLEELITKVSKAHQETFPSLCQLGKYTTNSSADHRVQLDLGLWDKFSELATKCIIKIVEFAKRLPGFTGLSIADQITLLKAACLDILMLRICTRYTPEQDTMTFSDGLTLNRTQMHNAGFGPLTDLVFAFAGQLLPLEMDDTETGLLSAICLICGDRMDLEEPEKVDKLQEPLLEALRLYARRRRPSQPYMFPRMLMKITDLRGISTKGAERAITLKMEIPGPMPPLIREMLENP
The assay is described as follows: Transactivation test (luciferase reporter, HeLa stable transfectants), RAR gamma. Particulars: apparent Kd from Schild regression, cross curves against reference antagonist, HeLa cells; read-out: RAR gamma Kdapp. As for the experimental part: as §1, §2, §3, §4
In the case of an agonist, the AC50 is calculated by plotting the curve of the product at the concentration of the reference ligand giving 80% activation. The percentage activation which corresponds to the maximum level of activity obtained is also measured. […]
as §9

As to `CC1(C)CCC(C)(C)c2cc(-c3cc(-c4ccc(C(=O)O)cc4O)ccc3-c3ccccc3)ccc21` [Example 42, 2″-Hydroxy-2′-(5,5,8,8-tetramethyl-5,6,7,8-tetrahydronaphthalen-2-yl)-[1,1′:4,1″]-tert-phenyl-4″-carboxylic acid], the Kd at RAR alpha stood at 8 nM; at RAR beta, 4 nM.
With `Cc1cc(-c2ccc(-c3ccccc3)c(-c3ccc4c(c3)C(C)(C)CCC4(C)C)c2)ccc1C(=O)O` [Example 41, 3″-Methyl-2′-(5,5,8,8-tetramethyl-5,6,7,8-tetrahydronaphthalen-2-yl)-[1,1′:4,1″]-tert-phenyl-4″-carboxylic acid], the values for the Kd on RAR alpha, on RAR beta and on RAR gamma were 2 nM, 1 nM and 0.25 nM, respectively.
As for `CC1(C)CCC(C)(C)c2cc(-c3cc(-c4ccc(C(=O)O)cn4)ccc3-c3ccccc3)ccc21` [Example 47, 6-[2-(5,5,8,8-Tetramethyl-5,6,7,8-tetrahydronaphthalen-2-yl)biphenyl-4-yl]nicotinic acid], the Kd at RAR alpha is 4 nM; on RAR beta, 1 nM.
In the same order, the values of `CC1(C)CCC(C)(C)c2cc(-c3cc(-c4ccc(C(=O)O)cc4)ccc3-c3ccccc3)ccc21` [Example 14, 2′-(5,5,8,8-Tetramethyl-5,6,7,8-tetrahydronaphthalen-2-yl)-[1,1′:4′,1″]-tert-phenyl-4″-carboxylic acid] are 2 nM and 1 nM.
`COc1cc(C(=O)O)ccc1-c1ccc(-c2ccccc2)c(-c2ccc3c(c2)C(C)(C)CCC3(C)C)c1` [Example 44, 2″-Methoxy-2′-(5,5,8,8-tetramethyl-5,6,7,8-tetrahydronaphthalen-2-yl)-[1,1′:4,1″]-tert-phenyl-4″-carboxylic acid]: the results for the Kd on RAR alpha, on RAR beta and at RAR gamma were 4 nM, 2 nM and 0.5 nM, respectively.
Taken in the same sequence, the figures for `CC1(C)CCC(C)(C)c2cc(-c3cc(-c4ccc(C(=O)O)c(O)c4)ccc3-c3ccccc3)ccc21` [Example 46, 3″-Hydroxy-2′-(5,5,8,8-tetramethyl-5,6,7,8-tetrahydronaphthalen-2-yl)-[1,1′:4,1″]-tert-phenyl-4″-carboxylic acid] were 2 nM, 1 nM and 0.25 nM.

Values taken from patent US8049034B2, “Biphenyl compound selective agonists of gamma RAR receptors” (Galderma Research & Development, priority 2005, dated 2011).
